Data: patent publication US20100331297A1, “MODULATION OF PROTEIN TRAFFICKING” (FOLDRX PHARMACEUTICALS, INC., priority 2007, published 2010)

Assays:
ΔF508 CFTR [1] = biological target: T1, ΔF508 CFTR (Homo sapiens, UniProt P13569, DEL508-508); assay: Corrector activity, YFP halide (iodide) quenching assay in FRT cells expressing ΔF508 CFTR; type: cell-based; parameters: expressed in transfected cells; host or cells: Fischer rat thyroid (FRT) cells; details: FRT cells ΔF508 CFTR/YFP, 24 hours with compound at 37° C., forskolin and genistein; read-out: Corrector EC50
T1 sequence (P13569 with tags, fused parts or gaps DEL508-508): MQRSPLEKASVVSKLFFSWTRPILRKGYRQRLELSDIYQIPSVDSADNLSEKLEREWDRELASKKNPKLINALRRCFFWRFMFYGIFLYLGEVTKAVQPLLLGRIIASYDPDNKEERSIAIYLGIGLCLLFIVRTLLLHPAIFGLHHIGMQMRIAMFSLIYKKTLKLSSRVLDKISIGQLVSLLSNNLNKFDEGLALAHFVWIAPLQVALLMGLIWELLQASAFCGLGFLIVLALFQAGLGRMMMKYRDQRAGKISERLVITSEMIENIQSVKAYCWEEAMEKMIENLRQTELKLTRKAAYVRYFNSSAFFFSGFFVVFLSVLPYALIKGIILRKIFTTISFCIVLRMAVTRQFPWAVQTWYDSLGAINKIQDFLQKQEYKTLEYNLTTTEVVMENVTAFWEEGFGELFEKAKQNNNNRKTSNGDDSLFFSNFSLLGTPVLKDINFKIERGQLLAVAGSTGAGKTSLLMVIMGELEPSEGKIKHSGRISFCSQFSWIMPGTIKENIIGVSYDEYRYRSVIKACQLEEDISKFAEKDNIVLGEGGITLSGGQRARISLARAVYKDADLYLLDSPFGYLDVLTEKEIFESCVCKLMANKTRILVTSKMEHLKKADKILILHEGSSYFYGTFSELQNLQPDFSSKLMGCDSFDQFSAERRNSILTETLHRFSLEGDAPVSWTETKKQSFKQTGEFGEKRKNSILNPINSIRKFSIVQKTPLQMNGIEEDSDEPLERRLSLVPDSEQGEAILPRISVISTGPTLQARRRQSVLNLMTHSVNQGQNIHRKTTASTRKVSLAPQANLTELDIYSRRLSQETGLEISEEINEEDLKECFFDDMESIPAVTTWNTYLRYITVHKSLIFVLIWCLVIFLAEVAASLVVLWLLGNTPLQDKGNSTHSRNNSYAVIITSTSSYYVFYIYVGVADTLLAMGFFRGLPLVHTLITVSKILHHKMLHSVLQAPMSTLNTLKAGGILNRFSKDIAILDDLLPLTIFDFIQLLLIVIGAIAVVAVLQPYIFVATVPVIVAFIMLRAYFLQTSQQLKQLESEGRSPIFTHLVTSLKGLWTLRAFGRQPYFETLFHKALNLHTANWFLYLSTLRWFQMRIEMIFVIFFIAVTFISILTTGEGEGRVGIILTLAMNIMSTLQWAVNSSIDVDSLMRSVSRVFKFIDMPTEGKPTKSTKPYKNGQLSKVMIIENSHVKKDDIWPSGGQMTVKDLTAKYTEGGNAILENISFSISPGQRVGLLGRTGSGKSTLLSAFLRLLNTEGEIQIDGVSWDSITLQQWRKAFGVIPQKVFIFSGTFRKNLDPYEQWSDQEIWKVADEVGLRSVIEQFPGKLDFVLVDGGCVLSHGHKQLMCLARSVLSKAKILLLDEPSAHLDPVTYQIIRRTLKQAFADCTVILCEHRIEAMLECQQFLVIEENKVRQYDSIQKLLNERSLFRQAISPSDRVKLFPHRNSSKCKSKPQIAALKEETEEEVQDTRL
Procedure, shortened: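 FRT cells co-expressing ΔF508 CFTR and halide-sensitive YFP were incubated 24 h at 37° C with compounds, then stimulated 30 min at 37° C in PBS with forskolin and genistein. Endpoint fluorescence after iodide injection was normalized to initial reading; EC50 from 4-parameter fit with bottom constrained to DMSO control.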

ΔF508 CFTR [2] = biological target: T1, ΔF508 CFTR; assay: Potentiator activity, YFP halide (iodide) quenching assay in FRT cells expressing ΔF508 CFTR, 27° C. pre-incubation; type: cell-based; parameters: expressed in transfected cells; host or cells: Fischer rat thyroid (FRT) cells; details: FRT cells ΔF508 CFTR/YFP, 24 hours at 27° C., compound with forskolin 30 min
Experimental: Fisher rat thyroid (FRT) cells stably expressing ΔF508 CFTR and a halide-sensitive variant of yellow fluorescent protein (YFP) were seeded into microtiter plates and allowed to grow for 24 hours at 37° C. and 5% CO2, as described above. The medium was replaced with fresh medium and the cells were incubated for a further 24 hours at 27° C. and 5% CO2 to increase the level of mutant CFTR at the cell surface.
Compounds in DMSO solution were pre-diluted into phosphate-buffered saline solution (PBS) containing forskolin. Activity of CFTR was assayed by removing the medium, washing the cell monolayer with PBS, and then applying the compounds diluted in PBS containing forskolin. After 30 min of incubation at 37° C., the plates were placed in a fluorescence plate reader equipped with a reagent injector. After measuring an initial fluorescence value, iodide-containing buffer was injected and the decrease in fluorescence was followed at excitation and emission wavelengths of 485 and 530 nm, respectively.
Potentiator activity was calculated as follows. Normalized endpoint fluorescence was calculated by dividing the endpoint fluorescence after iodide injection by the initial fluorescence reading and multiplication by 100. Potentiator EC50 values were calculated by the same method as corrector EC50 values.

SMILES	EC50 (ΔF508 CFTR [1]) [µM]	EC50 (ΔF508 CFTR [2]) [µM]
CCn1nc(Nc2cccc3ccccc23)c2c(N)ncnc21 [compound 308]	5 to 10	> 15
CN(c1ccccc1)c1nn(C2CCC2)c2ncnc(N)c12 [compound 314]	> 15	> 15
CC(=O)N1CC(n2nc(Sc3cccc(Cl)c3)c3c(N)ncnc32)C1 [compound 344]	> 15	> 15
CCn1nc(Sc2cccc(Br)c2)c2c(N)ncnc21 [compound 236]	> 15	< 2
CCOC(=O)N1CC(n2nc(Sc3ccccc3)c3c(N)ncnc32)C1 [compound 347]	> 15	> 15
CCn1nc(Sc2cccc(OC(F)(F)F)c2)c2c(N)ncnc21 [compound 281]	> 15	> 15
CCn1nc([S+]([O-])c2cccc(F)c2)c2c(N)ncnc21 (centres unmarked) [compound 238]	> 15	> 15
CC(C)(C)n1nc(Oc2ccc(OCc3ccccc3)cc2)c2c(N)ncnc21 [compound 233]	> 15	> 15
CC(C)(C)n1nc(Oc2cccc(F)c2F)c2c(N)ncnc21 [compound 178]	> 15	2 to 5
CC(C)(C)n1nc(-c2ccc(Cl)cc2)c2c(NC(=O)C3CCCC3)ncnc21 [compound 266]	5 to 10	< 2
CCn1cc(-c2ccc(Cl)cc2)c2c(NC(=O)C3CCCC3)ncnc21 [compound 350]	< 2	> 15
Nc1ncnc2c1c(-c1ccc(Cl)cc1)cn2CC1CCC1 [compound 262]	2 to 5	2 to 5
CC(C)Cn1nc(-c2ccc(Cl)cc2)c2c(N)ncnc21 [compound 252]	2 to 5	5 to 10
Nc1ncnc2c1c(Oc1cccc(Cl)c1)nn2-c1ncccn1 [compound 287]	> 15	> 15
CCn1nc(Sc2cc(F)cc(F)c2)c2c(N)ncnc21 [compound 264]	> 15	2 to 5
CC(C)(C)OC(=O)N1CC(n2nc(Oc3ccccc3)c3c(N)ncnc32)C1 [Compound No. 341, 3-(4-Amino-3-phenoxy-pyrazolo[3,4-d]pyrimidin-1-yl)-azetidine-1-carboxylic acid tert-butyl ester]	> 15	5 to 10
CC(C)(C)n1nc(Sc2cccc(C(F)(F)F)c2)c2c(N)ncnc21 [compound 244, 1-tert-Butyl-3-(3-trifluoromethyl-phenylsulfanyl)-1H-pyrazolo[3,4-d]pyrimidin-4-ylamine]	> 15	5 to 10
CCC(=O)Nc1ncnc2c1c(-c1ccc(Cl)cc1)nn2C(C)(C)C [compound 240]	5 to 10	< 2
CC(C)(C)OC(=O)N1CC(n2nc(-c3ccc(Cl)cc3)c3c(N)ncnc32)C1 [Compound No. 267, 3-[4-Amino-3-(4-chloro-phenyl)-pyrazolo[3,4-d]pyrimidin-1-yl]-azetidine-1-carboxylic acid tert-butyl ester]	> 15	2 to 5
Nc1ncnc2c1c(Oc1cccc(Cl)c1)nn2CC(F)F [compound 263]	> 15	> 15
COc1nn(C(C)(C)C)c2ncnc(N)c12 [compound 312, 1-tert-butyl-3-methoxy-1H-pyrazolo[3,4-d]pyrimidin-4-ylamine]	> 15	5 to 10
CC(C)OC(=O)Nc1ncnc2c1c(-c1ccc(Cl)cc1)nn2C(C)(C)C [compound 300]	5 to 10	> 15
CCOC(=O)N1CCC(n2nc(-c3ccc(Cl)cc3)c3c(N)ncnc32)CC1 [compound 303]	> 15	> 15
CCn1nc([S+]([O-])c2ccc(F)cc2F)c2c(N)ncnc21 (centres unmarked) [compound 292]	> 15	> 15
CCC(C)Cn1cc(-c2ccc(Cl)cc2)c2c(N)ncnc21 (centres unmarked) [compound 289]	5 to 10	2 to 5

SMILES	EC50 (ΔF508 CFTR [1]) [µM]	EC50 (ΔF508 CFTR [2]) [µM]
Nc1ncnc2c1c(-c1ccc(Cl)cc1)nn2-c1ccc([N+](=O)[O-])cn1 [compound 288]	> 15	> 15
CC(C)(C)n1cc(-c2ccc(Cl)cc2)c2c(NC(=O)C3CCCC3)ncnc21 [compound 321]	< 2	< 2
CCn1nc(Sc2ccccn2)c2c(N)ncnc21 [compound 324]	> 15	> 15
Cc1cccc(-c2nn(C(C)(C)C)c3ncnc(N)c23)c1 [compound 104]	> 15	2 to 5
CCn1nc([S+]([O-])c2cccc(Cl)c2)c2c(N)ncnc21 (centres unmarked) [compound 279]	> 15	> 15
CCNC(=O)N1CCC(n2nc(-c3ccc(Cl)cc3)c3c(N)ncnc32)CC1 [compound 319]	> 15	> 15
CC(C)(C)n1nc(Oc2ccccc2F)c2c(N)ncnc21 [compound 197]	5 to 10	< 2
CCn1nc(N(C)c2cccc(Cl)c2)c2c(N)ncnc21 [compound 317]	> 15	> 15
CC(=O)N1CC(n2cc(Cc3cccc4ccccc34)c3c(N)ncnc32)C1 [compound 306]	> 15	> 15
CCn1cc(-c2ccc(Cl)cc2)c2c(NS(C)(=O)=O)ncnc21 [Compound No. 305, N-[5-(4-Chloro-phenyl)-7-ethyl-7H-pyrrolo[2,3-d]pyrimidin-4-yl]-methanesulfonamide]	> 15	> 15
CC(C)(C)n1nc(Oc2ccc(Cl)cc2)c2c(N)ncnc21 [compound 168]	> 15	< 2
CC(=O)Nc1ncnc2c1c(-c1ccc(F)cc1)nn2C(C)(C)C [compound 118, N-[1-tert-Butyl-3-(4-fluoro-phenyl)-1H-pyrazolo[3,4-d]pyrimidin-4-yl]-acetamide]	> 15	> 15
Nc1ncnc2c1c(-c1ccc(Cl)cc1)nn2C(=O)OCc1ccccc1 [compound 188]	5 to 10	> 15
CC(C)(C)n1nc(Oc2ccccc2[N+](=O)[O-])c2c(N)ncnc21 [compound 331]	> 15	2 to 5
CC(C)(C)C(=O)Nc1ncnc2c1c(-c1ccc(Cl)cc1)cn2C(C)(C)C [compound 349]	2 to 5	2 to 5
CC(C)(C)n1nc(Oc2cccc(C#N)c2)c2c(N)ncnc21 [compound 201]	5 to 10	5 to 10
CCn1nc(Sc2cccc(OC)c2)c2c(N)ncnc21 [compound 280]	> 15	> 15
CC(C)(C)n1nc(Oc2ccc(C#N)cc2)c2c(N)ncnc21 [compound 205]	> 15	< 2
CCn1nc([S+]([O-])c2cccc(O)c2)c2c(N)ncnc21 (centres unmarked) [compound 285]	> 15	> 15
C=CCn1cc(-c2ccc(Cl)cc2)c2c(N)ncnc21 [compound 311]	2 to 5	5 to 10
CC(C)(C)n1nc(Oc2ccc(F)c(F)c2)c2c(N)ncnc21 [compound 174]	> 15	< 2
CC(C)(C)n1nc(-c2ccc(O)cc2Cl)c2c(N)ncnc21 [compound 276]	5 to 10	< 2
CCn1nc(Nc2ccc3c(c2)OC(F)(F)O3)c2c(N)ncnc21 [compound 313]	> 15	2 to 5
CN(C)C(=O)Nc1ncnc2c1c(-c1ccc(Cl)cc1)nn2C(C)(C)C [compound 269]	> 15	> 15
